Measurements taken from PMC2905628 (Molecular cancer therapeutics, 2010).

Molecular target: T1, protein kinase D2 (PKD2) (Homo sapiens, UniProt Q9BZL6)
T1 sequence (Q9BZL6 1-878): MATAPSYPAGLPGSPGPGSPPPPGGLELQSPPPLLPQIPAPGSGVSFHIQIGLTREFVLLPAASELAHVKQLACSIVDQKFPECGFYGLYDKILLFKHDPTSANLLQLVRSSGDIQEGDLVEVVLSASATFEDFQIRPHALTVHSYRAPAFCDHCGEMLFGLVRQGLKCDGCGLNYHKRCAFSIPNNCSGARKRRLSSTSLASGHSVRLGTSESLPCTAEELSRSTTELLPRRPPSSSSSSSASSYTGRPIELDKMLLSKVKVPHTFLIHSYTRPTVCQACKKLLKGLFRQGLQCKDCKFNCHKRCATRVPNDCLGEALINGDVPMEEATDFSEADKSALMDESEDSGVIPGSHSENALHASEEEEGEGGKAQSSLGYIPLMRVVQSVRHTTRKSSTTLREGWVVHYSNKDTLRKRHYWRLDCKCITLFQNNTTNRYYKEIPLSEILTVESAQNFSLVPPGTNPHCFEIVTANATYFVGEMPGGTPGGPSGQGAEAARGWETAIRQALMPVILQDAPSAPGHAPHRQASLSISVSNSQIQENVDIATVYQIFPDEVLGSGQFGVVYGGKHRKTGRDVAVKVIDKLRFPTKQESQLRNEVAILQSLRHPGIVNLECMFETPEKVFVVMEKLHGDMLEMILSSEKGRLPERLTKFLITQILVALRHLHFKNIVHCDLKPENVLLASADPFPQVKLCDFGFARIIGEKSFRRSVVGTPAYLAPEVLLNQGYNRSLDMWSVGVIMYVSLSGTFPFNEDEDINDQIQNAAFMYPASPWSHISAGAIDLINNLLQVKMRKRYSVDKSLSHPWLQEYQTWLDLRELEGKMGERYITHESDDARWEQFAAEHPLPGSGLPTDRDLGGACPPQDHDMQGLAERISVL
Assay: IMAP fluorescence polarization kinase assay, peptide substrate phosphorylation
Format: biochemical

With `CC[C@@H](N)CNc1ccnc(-c2cc(-c3cnn(C)c3)ccc2O)n1` [CRT0066101] the IC50 was 2.5 nM.
